Where a SMILES comes first, the peptide text is derived from it. Where no end group is shown, it is not given here. [ ]: non-standard residue; d: D form.
Test system: H1650 cells
Assay: not given
Assay type: cell-based
Details: not given
Procedure: IC50 (half maximal inhibitory concentration; μM) values in lung cancer cells. […] The residues marked in red/bold are D-isoforms of amino acids (SEQ ID NOS: 57, 48-54, 40-42 45 and 47 in order of appearance).
Molecular basis of MPS peptide and its potential for increasing nintedanib efficacy. […] A kinetic assay confirmed that this peptide binds PIP2 with a dissociation constant of 17.64 nM (FIG. 10B). As expected, a decrease of PIP3 pools in whole cell lysates of MPS-treated IPF fibroblasts was observed (FIG. 10C), supporting the notion that MPS peptide is able to inhibit AKT activation through trapping PIP2. In view of adverse effects of the current IPF therapeutic nintedanib^9, 10, there is an urgent clinical need to improve the efficacy of such treatment in IPF. Since the TGF-β receptor is not a direct target of nintedanib, targeting an element of TGF-β signaling in tandem with nintedanib administration circumvents the shortcomings of nintedanib monotherapy. […] Based on the above observations, it is assumed that TGF-β-directed phospho-MARCKS is a bypass mechanism of activating PI3K/AKT signaling (FIG. 11B); therefore, it seems reasonable that MARCKS inhibition by MPS treatment may improve nintedanib efficacy, permitting lower doses of nintedanib to be used. To this end, the possibility of a synergistic interaction between MPS and nintedanib in order to circumvent the shortcomings of nintedanib monotherapy was tested. […] Furthermore, the Chou and Talalay CI (combination index) method^25 was used to evaluate the therapeutic interactions between nintedanib and MPS peptide. […] Particularly, the values were lower than 1 at ED50, approximately 1 at ED75, and above 1 at ED90 (data not shown). Thus, the combination effect was dose-dependently correlated with the components, and therefore low dose nintedanib in combination with low dose of MPS presents a synergistic effect on cell proliferation. […] On the basis of the sequences of MPS peptide, the rearrangement of PIP2-binding sites in this peptide were designed and synthesized with the intention of enhancing the efficacy and stability of the MPS peptide. FIG. 13 lists the sequences of various MPS derivatives. In light of the cleavage sites of various proteases and PIP2 binding motifs, Applicant replaced some L-isoform amino acids with D-isoform and these peptides were named as MPS-12042 and MPS-22026. To further validate the efficacy of the above MPS derivatives, Applicant performed a dose-course analysis of H1650 cells undergoing each MPS derivative treatment.

Molecule | IC50 [µM]
CC(C)C[C@@H](NC(=O)[C@@H](C)NC(=O)[C@@H](Cc1ccccc1)NC(=O)[C@@H](C)NC(=O)CNC(=O)[C@@H](Cc1ccccc1)NC(=O)[C@H](C)NC(=O)[C@@H](Cc1ccccc1)NC(=O)[C@H](CCCCN)NC(=O)[C@H](CCCCN)NC(=O)[C@H](CCCCN)NC(=O)[C@H](CCCCN)NC(=O)[C@@H](N)CCCCN)C(=O)N[C@@H](CCCCN)C(=O)N[C@H](CCCCN)C(=O)N[C@H](Cc1ccccc1)C(=O)N[C@@H](C)C(=O)N[C@H](Cc1ccccc1)C(=O)N[C@H](CCCNC(=N)N)C(=O)N[C@H](CCCCN)C(=O)N[C@@H](CCCCN)C(=O)N[C@@H](CCCCN)C(=O)N[C@@H](CC(N)=O)C(=O)N[C@H](CCCCN)C(=O)N[C@@H](CCCCN)C(=O)O [MPS-22026] (H-KKKKK[dF]A[dF]G[dA][dF][dA][dL]K[dK][dF]A[dF][dR][dK]KKN[dK]K-OH; N-terminus and C-terminus assumed) | 11
AKKKKRFSFKKSFKLSGFSFKKNKK [MPS-11001] | 85
Ac-KKKKKRFSFKKSFKLSGFSFKKNKK-NH2 [MPS-11200] | 78
FSFGSFSLKKFSFRKKKNKK [MPS-21010] | 83
KKAKKRFSFKKSFKLSGFSFKKNKK [MPS-11003] | 85
KKKKFAFGAFALKKFAFRKKKNKK [MPS-21026] | 49
KKKKFSFGSFSLKKFSFRKKKNKK [MPS-21020] | 64
KKKKKAFSFKKSFKLSGFSFKKNKK [MPS-11006] | 79
KKKKKRFSFAKSFKLSGFSFKKNKK [MPS-11010] | 73
KKKKKRFSFKASFKLSGFSFKKNKK [MPS-11011] | 29
KKKKKRFSFKKSFKLSGFSFKANKK [MPS-11022] | 83

Test system: IPF fibroblast cells
Assay: cells
Assay type: cell-based, human
Details: Homo sapiens; IPF fibroblast cells, 72 hours; read-out: IC50 inhibiting IPF fibroblast proliferation
Procedure: FIG. 14: Comparison of MPS-12042 (SEQ ID NO: 45) versus know tyrosine kinase inhibitor (TKLs) on the treatment of IPF fibroblast cells. Both normal and IPF lung fibroblast cells were treated with various drugs. After 72 hours, cells were subjected to MTT assays and IC50 for each drug was determined.
Human primary fibroblast cells were obtained from airway tissues provided from the UC Davis Medical Hospital (Sacramento, Calif.) with consent. The protocol for human tissue procurement and usage were periodically reviewed and approved by the University Human Subject Research Review Committee. Primary fibroblast cell lines, IPF-1 and IPF-2 cells, were established from IPF patients. Cells were obtained from lung biopsies and the diagnosis of IPF was supported by patient history, physical examination, pulmonary function tests, and typical high-resolution chest computed tomography findings of IPF. […] All patients fulfilled the criteria for the diagnosis of IPF as established by the American Thoracic Society and European Respiratory Society. Non-fibrotic primary control adult human lung fibroblast lines, Normal-1 and Normal-2 cells were used. These lines were established from normal lung tissue or histologically normal lung tissue adjacent to carcinoid tumor. The IPF cell line, LL97A, was purchased from the American Type Culture Collection (ATCC) (Manassas, Va.). Lung fibroblast lines were cultured in high-glucose DMEM or RPMI-1640 medium with 10% fetal bovine serum and 1% penicillin-streptomycin at 37° C. in a humidified atmosphere of 5% CO2. Fibroblasts were used between passages 4 and 8. Cells were characterized as fibroblasts as described^26.
Cells were seeded onto 96-well plates at a density of 5-10×10^3 cells per well and cultured for the indicated treatment. Cell proliferation was evaluated using a MTS assay kit (Promega, Madison, Wis.). Twenty microliters of the combined MTS/PMS solution was added into each well, incubated for 3 hours at 37° C., and the absorbance was measured at 490 nm by using an ELISA reader. For Trypan blue test, cells were plated on 12-well plates and treated with the indicated chemotherapeutic agents. After 72 hours, both attached and detached cells were collected and then stained with 0.2% trypan blue (0.1% final concentration), and the number of trypan blue-positive and -negative cells was counted using a haemocytometer under low-power microscopy. For colony-forming assays, 200 cells were seeded in each well of six-well plates. IPF-1 or IPF-2 primary cells were treated with peptides at the indicated concentrations for 10 days. Colonies were stained using 0.001% crystal violet and the number of colonies with a diameter greater than 0.5 mm was counted under an inverted microscope.

Molecule | IC50 [µM]
COC(=O)c1ccc2c(c1)NC(=O)/C2=C(\Nc1ccc(N(C)C(=O)CN2CCN(C)CC2)cc1)c1ccccc1 [nintedanib, reference compound] | 13.8 to 15.9

Test system: primary IPF fibroblasts
Assay: Combination of nintedanib and MPS peptide, cell viability by MTT, Chou and Talalay CI
Assay type: cell-based, human
Details: nintedanib 62.5-2000 nM and/or MPS 6.25-200 μM, 72 hours
Procedure: FIGS. 12A-12E: (FIGS. 12A-12B) Combinatorial effect of MPS peptide with nintedanib on fibroblasts isolated from two IPF patients. Cells were treated with various closes of nintedanib (62.5-2000 nM) and/or MPS peptide (6.25-200 μM) for 72 hours, respectively. After single ([…]) or combined ([…]) treatment, cell viability was determined by MTT assays. (FIG. 12C) The Chou and Talalay CI (combination index) method was utilized to evaluate the therapeutic interactions between nintedanib and MPS peptide using the Calcusyn software. Gray line, additive effect of the combination of MPS peptide and the drug is represented at CI=1. (FIG. 12D) Cells were individually treated with 1 μM nintedanib, 100 μM MPS peptide or combinations of 1 μM nintedanib and 100 μM MPS peptide. After 48 hours, cell viability was determined by the trypan blue exclusion assay (n+3; *, p<0.05). […] Molecular basis of MPS peptide and its potential for increasing nintedanib efficacy. […] A kinetic assay confirmed that this peptide binds PIP2 with a dissociation constant of 17.64 nM (FIG. 10B). As expected, a decrease of PIP3 pools in whole cell lysates of MPS-treated IPF fibroblasts was observed (FIG. 10C), supporting the notion that MPS peptide is able to inhibit AKT activation through trapping PIP2. […]

Molecule | Cell viability
COC(=O)c1ccc2c(c1)NC(=O)/C2=C(\Nc1ccc(N(C)C(=O)CN2CCN(C)CC2)cc1)c1ccccc1 [nintedanib, reference compound] | decreased

Test system: α-SMA and phospho-AKT
Assay: Western blot of α-SMA and phospho-AKT in primary IPF fibroblasts
Assay type: cell-based, human
Details: nintedanib 1000 nM, 48 hours
Procedure: FIGS. 11A-11B: (FIG. 11A) Western blot analysis of α-SMA and phospho-AKT in primary IPF fibroblasts with nintedanib (1000 nM) and/or MPS (100 μM) for 48 hours. (FIG. 11B) A proposed model of activating the PI3K/AKT pathway after nintedanib treatment. An arrow: a direct interaction. Western blot analyses and the preparations of whole-cell lysates have been previously described^14, 16, 27 For whole cell lysates, cells were lysed in a lysis buffer (50 mM Tris-HCl (pH 7.4), 1% Triton X-100, 10% glycerol, 150 mM NaCl, 1 mM EDTA, 20 μg/ml leupeptin, 1 mM PMSF and 20 μg/ml aprotinin) and separated by SDS-PAGE. Immunoblotting was conducted with appropriate antibodies followed by chemiluminescent detection. For immunofluorescent staining, after an antigen retrieval step, tissue slides were reacted with antibodies against FITC-labeled α-SMA and TRITC-conjugated phospho-MARCKS, and nuclei were demarcated with DAPI staining. The cells were mounted onto slides and visualized using fluorescence microscopy (model Axiovert 100; Carl Zeiss, Oberkochen, Germany) or a Zeiss LSM510 laser-scanning confocal microscope image system.

Molecule | phospho-AKT | α-SMA expression
COC(=O)c1ccc2c(c1)NC(=O)/C2=C(\Nc1ccc(N(C)C(=O)CN2CCN(C)CC2)cc1)c1ccccc1 [nintedanib, reference compound] | no change | increase

— patent US20220267390A1, “MPS MODIFIED PEPTIDES AND USE THEREOF” (The Regents of the University of California, priority 2019, published 2022)
